Results published in patent publication US9420813B2, “Sweetener” (AJINOMOTO CO., INC., priority 2007, dated 2016).
*1 amine or outer side, *2 acyl side, *3 side chain or, on linkers, in order; H or OH if unused. Where no end group is shown, it is not given here. [ ]: non-standard residue; d: D form. γGlu = O=C(O)[C@H](CCC(=O)[*:2])N[*:1]; Met(O) = CS(=O)CC[C@H](N)C(=O)O; Orn = NCCC[C@H](N)C(=O)O

Molecular target: T1, human calcium receptor (Homo sapiens, UniProt P41180)
T1 construct: expressed in transfected cells; host or cells: Xenopus laevis oocytes injected with receptor cRNA; the gene was amplified by PCR from human kidney cDNA (Clontech) and cloned in pBR322
T1 sequence (P41180 20-1078): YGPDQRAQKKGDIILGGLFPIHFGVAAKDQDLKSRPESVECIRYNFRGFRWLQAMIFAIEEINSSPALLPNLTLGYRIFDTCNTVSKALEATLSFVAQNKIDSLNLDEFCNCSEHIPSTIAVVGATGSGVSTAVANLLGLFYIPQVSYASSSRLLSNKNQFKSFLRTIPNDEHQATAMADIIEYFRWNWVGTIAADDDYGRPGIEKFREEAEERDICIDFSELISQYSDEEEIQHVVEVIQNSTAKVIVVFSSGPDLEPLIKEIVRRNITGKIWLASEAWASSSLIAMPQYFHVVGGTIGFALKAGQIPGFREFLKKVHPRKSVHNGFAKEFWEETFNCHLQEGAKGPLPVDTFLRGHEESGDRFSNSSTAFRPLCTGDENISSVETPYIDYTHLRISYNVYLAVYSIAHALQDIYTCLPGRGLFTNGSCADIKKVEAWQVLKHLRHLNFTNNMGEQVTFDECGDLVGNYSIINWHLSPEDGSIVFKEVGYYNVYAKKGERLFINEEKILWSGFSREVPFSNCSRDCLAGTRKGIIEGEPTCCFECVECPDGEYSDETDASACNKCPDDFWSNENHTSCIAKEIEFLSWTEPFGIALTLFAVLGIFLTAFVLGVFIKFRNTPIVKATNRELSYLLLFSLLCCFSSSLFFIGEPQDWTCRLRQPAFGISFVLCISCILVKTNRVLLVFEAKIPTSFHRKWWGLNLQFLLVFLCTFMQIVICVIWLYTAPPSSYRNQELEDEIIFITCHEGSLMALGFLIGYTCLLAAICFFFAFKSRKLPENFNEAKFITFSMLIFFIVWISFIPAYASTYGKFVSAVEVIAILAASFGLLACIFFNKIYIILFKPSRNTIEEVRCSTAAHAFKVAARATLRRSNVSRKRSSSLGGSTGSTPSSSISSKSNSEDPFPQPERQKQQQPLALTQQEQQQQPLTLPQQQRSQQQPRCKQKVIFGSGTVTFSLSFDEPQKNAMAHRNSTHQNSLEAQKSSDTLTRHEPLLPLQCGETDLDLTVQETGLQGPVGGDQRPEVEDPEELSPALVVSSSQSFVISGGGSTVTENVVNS
Assay: Calcium receptor-activating effect, Ca ion concentration-dependent Cl ionic current in Xenopus laevis oocyte expression system
Assay type: cell-based
Conditions: amino acid added at 10 mM
Description: For evaluation of the calcium receptor-activating effect, Ca ion concentration-dependent Cl ionic current measuring method using a Xenopus laevis oocyte expression system was used. If activator is added to Xenopus laevis oocytes in which the calcium receptor is expressed, intracellular Ca ions increase. Then, the Ca ion concentration-dependent Cl channel opens, and the intracellular current value changes as an ionic current. By measuring the change in the intracellular current value, whether the calcium receptor-activating effect is present or not can be determined.
Specifically, the abdomen of Xenopus laevis was opened, and an egg batch was taken out and then treated with a 1% collagenase solution at 20° C. for 2 hours to obtain individual oocytes. Into each oocyte, 50 nl of 1 μg/μl receptor cRNA or 50 nl of sterilized water per oocyte were injected by using a micro glass capillary, and the oocytes were cultured at 18° C. for 2 to 3 days. For the culture, a solution obtained by adding 2 mM of pyruvic acid, 10 U/ml of penicillin and 10 μg/ml of streptomycin to the solution in Reference Example 2 was used. After the culture, a test solution was added to the oocytes injected with cRNA or sterilized water. Electrophysiological measurement was performed by using an amplifier Geneclamp 500 (manufactured by Axon) and recording software AxoScope 9.0 (manufactured by Axon). The oocytes were voltage-clamped at −70 mV by the double electrode voltage clamp method, and the intracellular current via the Ca ion concentration-dependent Cl ion was measured. The maximum value of the intracellular currents was defined as the response current value.
The ability of L-amino acids to activate the calcium receptor was evaluated by using the method described in Reference Example 6. That is, oocytes injected with cRNA of the calcium receptor or sterilized water were prepared, and voltage-clamped at −70 mV by the double electrode voltage clamp method. To the voltage-clamped oocytes, alanine (10 mM), arginine (10 mM), asparagine (10 mM), aspartic acid (10 mM), cysteine (10 mM), glutamine (10 mM), glutamic acid (10 mM), glycine (10 mM), histidine (10 mM), isoleucine (10 mM), leucine (10 mM), lysine (10 mM), methionine (10 mM), phenylalanine (10 mM), proline (10 mM), serine (10 mM), threonine (10 mM), tryptophan (10 mM), tyrosine (10 mM), valine (10 mM), ornithine (10 mM), taurine (10 mM) or hydroxyproline (10 mM) was added, and Ca ion concentration-dependent Cl response current was measured. […] 25, 2000, 97(9): 4814-9.
The effect of D-cysteine for activating a calcium receptor was evaluated by using the method described in Reference Example 6. That is, oocytes injected with cRNA of the calcium receptor or sterilized water were prepared, and voltage-clamped at −70 mV by the double electrode voltage clamp method. To the voltage-clamped oocytes, D-cysteine (10 mM), L-cysteine (10 mM), D-tryptophan (10 mM) or L-tryptophan (10 mM) was added, and Ca ion concentration-dependent Cl response current was measured.
The effect of peptide for activating calcium receptor was evaluated by using the method described in Reference Example 6. That is, oocytes injected with cRNA of the calcium receptor or sterilized water were prepared, and voltage-clamped at −70 mV by the double electrode voltage clamp method. To the voltage-clamped oocytes, γ-Glu-Cys-Gly (50 μM), γ-Glu-Cys(SNO)-Gly (50 μM), γ-Glu-Ala (50 μM), γ-Glu-Gly (500 μM), γ-Glu-Cys (50 μM), γ-Glu-Met (500 μM), γ-Glu-Thr (50 μM), γ-Glu-Val (50 μM), γ-Glu-Orn (500 μM), Asp-Gly (1 mM), Cys-Gly (1 mM), Cys-Met (1 mM), Glu-Cys (50 μM), Gly-Cys (500 μM) or Leu-Asp (1 mM) was added, and Ca ion concentration-dependent Cl response current was measured.
The ability of a peptide to activate calcium receptor was evaluated in the same manner as that of Reference Example 10.

Row | Compound | calcium receptor-activating effect (Ca ion concentration-dependent Cl response current)
1 | N[C@@H](Cc1c[nH]c2ccccc12)C(=O)O [tryptophan, reference compound] | definite calcium receptor-activating effect
2 | N[C@@H](Cc1c[nH]cn1)C(=O)O [histidine, reference compound] | definite calcium receptor-activating effect
3 | N[C@H](CS)C(=O)O [D-cysteine] | definite calcium receptor-activating effect
4 | N[C@@H](Cc1ccc(O)cc1)C(=O)O [tyrosine, reference compound] | definite calcium receptor-activating effect
5 | N[C@@H](CS)C(=O)O [cysteine, reference compound] | definite calcium receptor-activating effect
6 | N[C@@H](Cc1ccccc1)C(=O)O [phenylalanine, reference compound] | definite calcium receptor-activating effect

Same assay, conditions: peptide added at 50 μM

Row | Compound | effect for activating calcium receptor (Cl response current)
7 | [γGlu]-Cys | definite effect for activating calcium receptor
8 | [γGlu]-Ala | definite effect for activating calcium receptor
9 | N[C@@H](CCC(=O)N[C@@H](CSN=O)C(=O)NCC(=O)O)C(=O)O [γ-Glu-Cys(SNO)-Gly] | definite effect for activating calcium receptor
10 | [γGlu]-Val | definite effect for activating calcium receptor
11 | [γGlu]-Thr | definite effect for activating calcium receptor
12 | Glu-Cys | definite effect for activating calcium receptor

Same assay, conditions: peptide added at 500 μM

Row | Compound | effect for activating calcium receptor (Cl response current)
13 | [γGlu]-Met | definite effect for activating calcium receptor
14 | γ-Glu-Orn | definite effect for activating calcium receptor
15 | Gly-Cys | definite effect for activating calcium receptor
16 | [γGlu]-Gly | definite effect for activating calcium receptor

Same assay, conditions: peptide added at 1 mM

Row | Compound | effect for activating calcium receptor (Cl response current)
17 | Asp-Gly | definite effect for activating calcium receptor
18 | Leu-Asp | definite effect for activating calcium receptor
19 | Cys-Met | definite effect for activating calcium receptor
20 | Cys-Gly | definite effect for activating calcium receptor

Same assay, conditions: peptide added at 1,000 to 0.1 μM; Ca ion concentration-dependent Cl response current; oocytes voltage-clamped at −70 mV

Row | Compound | Activity (lowest concentration at which current is detected)
21 | [γGlu]-Val-Val | 1,000 μM
22 | [γGlu]-Val-Pro | 30 µM
23 | [γGlu]-Val-NH2 | 1,000 μM
24 | [γGlu]-Val-Asn | 30 µM
25 | [γGlu]-Val-Gln | 10 µM
26 | [γGlu]-Val-Cys | 10 µM
27 | [γGlu]-[Met(O)] | 1,000 μM
28 | [γGlu]-Val-Ser | 30 µM
29 | [γGlu]-[γGlu]-Val | 1,000 μM
30 | [γGlu]-Ser-Gly | 30 µM
31 | [γGlu]-Val-Phe | 30 µM
32 | [γGlu]-Val-His | 100 µM
33 | [γGlu]-Val-Lys | 1,000 μM
34 | γ-Glu-Val-ol | 1,000 μM
35 | [γGlu]-Val-Arg | 1,000 μM
36 | [γGlu]-Val-Met | 1,000 μM
37 | [γGlu]-Gly-Gly [γ-Glu-Glγ-Gly] | 30 µM
38 | [γGlu]-Val-[Orn] | 100 µM
39 | γ-Glu-Cys(S-Me)-Gly | 3 µM
40 | γ-Glu-Cys(S-allyl)-Gly | 100 µM
41 | [γGlu]-Val-Glu | 1,000 μM
42 | γ-Glu-t-Leu | 100 µM
43 | γ-Glu-Tau | 300 µM
44 | γ-Glu-Val-Asp | 1,000 μM
45 | [γGlu]-Val-Thr | 1,000 μM

Tested on: not listed separately
Assay: Quantitative sensory evaluation test, intensity of kokumi-imparting activity
Conditions: sample 0.1 g/dl; control 0, glutathione 3 points; n=3
Description: The quantitative sensory evaluation test was performed as follows. […] When a sample is acidic when dissolved, the pH was adjusted with NaOH to pH 6.8 to 7.2 before use. Because it is known that glutathione can impart kokumi to a food, glutathione was used as a comparative control. The test was performed with n=3 based on the following sensory evaluation scores: control was given 0 points, glutathione addition was given 3 points. […] It should be noted that the term “initial and middle taste” is a collective term of the initial taste and middle taste.
The quantitative sensory evaluation test was performed as follows. […] When a sample is acidic when dissolved, the pH of the sample was adjusted with NaOH to pH 6.8 to 7.2 before use. The test was performed with n=5 based on the following sensory evaluation scores: control was given 0 point and glutathione addition was given 3 points.
The quantitative sensory evaluation test was performed as follows. […] As for a sample which is acidic when the sample is dissolved, pH of the sample was adjusted with NaOH to pH 6.8 to 7.2 before use. The test was performed with n=12 based on the following sensory evaluation scores: control: 0 point and glutathione addition: 3 points.

Row | Compound | Kokumi intensity, aftertaste [points] | Kokumi intensity, initial and middle taste [points]
46 | [γGlu]-Ala | 0.2 | 0.5
47 | [γGlu]-Met | 0.4 | 1.5
48 | [γGlu]-Val | 1.0 | 3.0

Same assay, conditions: sample 0.1 g/dl; control 0, glutathione 3 points; n=5

Row | Compound | Kokumi intensity, aftertaste [points] | Kokumi intensity, initial and middle taste [points]
49 | [γGlu]-Cys | 2.0 | 2.0
50 | [γGlu]-Val | 1.0 | 3.0

Same assay, conditions: sample 0.1 g/dl; n=5

Row | Compound | Taste profile
51 | [γGlu]-Cys | A slightly
